In ChEMBL document CHEMBL1201862, “PubChem BioAssay data set” (2004):
The source made the active and inactive calls.

Assays:
[1] = target: T1, Ubiquitin-conjugating enzyme E2 N (Homo sapiens, UniProt P61088); type: functional;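 further: Dose-response confirmation in a TR-FRET assay detecting UBC13-driven polyubiquitin chain formation, inhibition measured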
T1 sequence (P61088 whole entry): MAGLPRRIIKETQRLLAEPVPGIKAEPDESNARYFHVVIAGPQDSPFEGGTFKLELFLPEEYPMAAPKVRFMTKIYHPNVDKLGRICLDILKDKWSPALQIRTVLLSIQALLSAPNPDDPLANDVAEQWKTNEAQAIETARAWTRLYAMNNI

[2] = viability of uninfected HEp-2 cells – cell-based, HTS, cytotoxicity control for RSV inhibitor project, dose response (AID 2410); type: functional; conditions: human respiratory syncytial virus
[3] = target: Glyceraldehyde-3-phosphate dehydrogenase (Homo sapiens, UniProt P04406)
[4] = target: Peroxisome proliferator-activated receptor gamma/Nuclear receptor coactivator 2 (Homo sapiens, UniProt P37231); type: functional;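 further: agonist potency for raising coactivator recruitment to the receptor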
[5] = target: Peroxisome proliferator-activated receptor gamma/Nuclear receptor coactivator 1 (Homo sapiens, UniProt P37231); type: functional;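 further: agonist potency as compounds enhance coactivator SRC-1 recruitment to PPARgamma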
[6] = target: Peroxisome proliferator-activated receptor gamma/Nuclear receptor coactivator 3 (Homo sapiens, UniProt P37231); type: functional;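 further: agonist potency for raising coactivator recruitment to the receptor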
Tumor necrosis factor = Tumor necrosis factor (Homo sapiens, UniProt P01375); test: analog potency on TNFa NF-kB signaling – cell-based, revised, SAR follow-up (AID 2337); type: functional
[7] = target: T2, Nucleotide-binding oligomerization domain-containing protein 1 (Homo sapiens, UniProt Q9Y239); test: blockers of NOD1 pathway activity – revised, SAR follow-up (AID 2333); type: functional
T2 sequence (Q9Y239 whole entry): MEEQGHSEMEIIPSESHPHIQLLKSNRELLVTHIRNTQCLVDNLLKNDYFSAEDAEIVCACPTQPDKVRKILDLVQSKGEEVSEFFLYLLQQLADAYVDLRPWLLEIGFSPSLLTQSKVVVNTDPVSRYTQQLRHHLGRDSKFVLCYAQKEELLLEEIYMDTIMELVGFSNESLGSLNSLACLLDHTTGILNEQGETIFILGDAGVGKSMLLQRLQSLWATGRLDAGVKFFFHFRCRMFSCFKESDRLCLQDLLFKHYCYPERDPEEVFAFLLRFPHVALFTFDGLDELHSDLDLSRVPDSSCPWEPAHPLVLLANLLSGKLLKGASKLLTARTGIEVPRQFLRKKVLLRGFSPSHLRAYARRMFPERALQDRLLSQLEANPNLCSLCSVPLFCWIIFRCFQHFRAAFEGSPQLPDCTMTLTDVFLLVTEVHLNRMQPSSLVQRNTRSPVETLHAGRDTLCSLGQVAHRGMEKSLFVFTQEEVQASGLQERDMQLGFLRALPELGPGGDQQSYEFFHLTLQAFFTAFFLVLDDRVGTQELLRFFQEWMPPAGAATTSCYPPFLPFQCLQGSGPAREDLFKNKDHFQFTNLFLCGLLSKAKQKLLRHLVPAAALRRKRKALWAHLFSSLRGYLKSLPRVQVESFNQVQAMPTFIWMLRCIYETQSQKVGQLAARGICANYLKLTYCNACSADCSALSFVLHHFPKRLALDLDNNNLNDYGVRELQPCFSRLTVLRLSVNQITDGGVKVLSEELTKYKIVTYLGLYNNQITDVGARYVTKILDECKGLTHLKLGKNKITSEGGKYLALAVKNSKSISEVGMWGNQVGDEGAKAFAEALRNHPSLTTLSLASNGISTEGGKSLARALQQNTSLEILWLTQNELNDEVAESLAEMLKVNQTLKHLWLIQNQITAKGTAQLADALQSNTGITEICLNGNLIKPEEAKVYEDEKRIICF

HEK293 = test: cells; conditions: Homo sapiens;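 further: cells exposed to compound for 14 hours overnight before viability readout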
[8] = target: T3, Heat shock factor protein 1 (Mus musculus, UniProt P38532); test: enhancement of HSF1-driven luciferase signal – cell-based, NIH3T3, luminescence, dose retest, confirmation (AID 435004); type: functional;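 further: stress induced by proteasome inhibitor MG132 added 30 min after compound; luciferase reporter driven by HSF1 response element in NIH3T3 cells; actives raise luminescence as potentiators of the MG132 stress response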
T3 sequence (P38532 whole entry): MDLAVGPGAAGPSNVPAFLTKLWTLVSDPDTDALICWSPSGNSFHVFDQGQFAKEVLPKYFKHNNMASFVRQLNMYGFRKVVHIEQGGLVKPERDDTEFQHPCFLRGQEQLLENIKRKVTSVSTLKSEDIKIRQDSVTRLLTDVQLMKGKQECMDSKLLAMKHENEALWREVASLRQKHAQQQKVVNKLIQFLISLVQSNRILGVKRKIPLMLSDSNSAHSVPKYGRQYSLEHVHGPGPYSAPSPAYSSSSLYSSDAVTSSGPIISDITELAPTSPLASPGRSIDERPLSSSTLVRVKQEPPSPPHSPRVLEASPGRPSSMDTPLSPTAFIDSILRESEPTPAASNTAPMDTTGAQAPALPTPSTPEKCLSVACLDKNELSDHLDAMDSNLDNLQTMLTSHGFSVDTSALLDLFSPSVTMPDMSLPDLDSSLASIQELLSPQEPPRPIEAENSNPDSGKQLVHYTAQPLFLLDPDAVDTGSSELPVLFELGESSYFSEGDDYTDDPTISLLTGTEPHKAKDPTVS

[9] = target: T4, Histone-lysine N-methyltransferase NSD2 (Homo sapiens, UniProt O96028); type: biochemical
T4 sequence (O96028 whole entry): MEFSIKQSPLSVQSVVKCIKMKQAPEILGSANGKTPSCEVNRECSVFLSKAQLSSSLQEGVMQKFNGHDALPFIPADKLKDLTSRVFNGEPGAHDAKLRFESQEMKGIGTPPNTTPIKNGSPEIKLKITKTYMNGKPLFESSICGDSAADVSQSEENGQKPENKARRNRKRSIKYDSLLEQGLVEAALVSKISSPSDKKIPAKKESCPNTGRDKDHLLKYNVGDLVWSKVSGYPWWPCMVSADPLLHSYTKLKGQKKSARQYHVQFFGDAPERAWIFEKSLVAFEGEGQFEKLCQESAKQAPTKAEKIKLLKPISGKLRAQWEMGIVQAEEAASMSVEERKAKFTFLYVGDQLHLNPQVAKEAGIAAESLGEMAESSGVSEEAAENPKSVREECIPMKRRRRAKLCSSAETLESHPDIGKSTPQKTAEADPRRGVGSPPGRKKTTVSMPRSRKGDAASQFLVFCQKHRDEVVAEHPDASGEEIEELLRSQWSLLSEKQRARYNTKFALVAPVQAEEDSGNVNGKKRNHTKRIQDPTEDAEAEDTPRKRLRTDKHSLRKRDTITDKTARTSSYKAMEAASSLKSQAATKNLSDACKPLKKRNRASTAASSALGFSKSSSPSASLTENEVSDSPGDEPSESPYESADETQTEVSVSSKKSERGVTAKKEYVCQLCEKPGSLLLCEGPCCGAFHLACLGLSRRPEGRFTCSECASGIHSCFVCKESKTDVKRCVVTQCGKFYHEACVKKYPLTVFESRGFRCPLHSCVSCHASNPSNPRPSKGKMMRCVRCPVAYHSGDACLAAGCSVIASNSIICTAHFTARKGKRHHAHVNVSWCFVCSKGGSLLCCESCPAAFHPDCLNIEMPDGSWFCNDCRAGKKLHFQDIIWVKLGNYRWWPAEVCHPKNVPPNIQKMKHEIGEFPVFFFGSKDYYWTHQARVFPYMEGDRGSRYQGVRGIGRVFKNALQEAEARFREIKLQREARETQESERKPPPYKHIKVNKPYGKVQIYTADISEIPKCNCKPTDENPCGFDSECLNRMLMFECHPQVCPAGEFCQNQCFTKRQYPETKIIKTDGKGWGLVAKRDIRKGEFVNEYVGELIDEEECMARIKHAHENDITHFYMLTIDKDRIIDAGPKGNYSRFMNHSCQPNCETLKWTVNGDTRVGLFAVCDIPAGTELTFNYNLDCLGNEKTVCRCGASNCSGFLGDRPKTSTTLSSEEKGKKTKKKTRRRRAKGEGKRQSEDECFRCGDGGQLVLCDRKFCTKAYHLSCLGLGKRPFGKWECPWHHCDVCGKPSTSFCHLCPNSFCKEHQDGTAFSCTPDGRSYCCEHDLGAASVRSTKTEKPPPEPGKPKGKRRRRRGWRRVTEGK

[10] = Trypanosoma cruzi growth suppression in host cells – NIH3T3 host cells, beta-gal luminescence, confirmation (AID 2044); type: functional, cell-based;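 further: intracellular parasites grown in NIH/3T3 mouse fibroblasts as host cells; luminescent beta-galactosidase reporter signal from transgenic T. cruzi replicating inside host cells; inhibitors lower the luminescence signal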
[11] = NIH3T3 cell viability loss – ATP luminescence, mouse fibroblasts, counter-screen, dose response (AID 2010); type: functional, cell-based;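 further: cells exposed to compound for about 90 hours before reading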
[12] = target: T5, Corticotropin-releasing factor receptor 2/Corticotropin-releasing factor-binding protein (Homo sapiens, UniProt P24387+Q13324); test: Dose Response confirmation of uHTS hits for small molecule antagonists of the CRF-binding protein and CRF-R2 receptor complex.; type: functional; conditions: read-out: IC50_Mean
T5 sequence (Q13324 whole entry): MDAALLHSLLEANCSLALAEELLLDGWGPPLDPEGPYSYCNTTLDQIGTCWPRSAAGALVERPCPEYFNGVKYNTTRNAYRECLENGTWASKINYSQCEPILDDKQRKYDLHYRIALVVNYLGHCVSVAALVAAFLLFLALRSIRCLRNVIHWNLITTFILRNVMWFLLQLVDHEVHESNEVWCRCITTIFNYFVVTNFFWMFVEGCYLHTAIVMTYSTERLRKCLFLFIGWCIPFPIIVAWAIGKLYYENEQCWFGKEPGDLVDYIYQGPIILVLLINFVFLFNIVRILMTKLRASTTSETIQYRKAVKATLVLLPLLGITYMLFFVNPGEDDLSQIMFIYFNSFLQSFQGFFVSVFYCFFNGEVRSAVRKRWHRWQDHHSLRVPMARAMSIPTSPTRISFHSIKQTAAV
T5 sequence (P24387 whole entry): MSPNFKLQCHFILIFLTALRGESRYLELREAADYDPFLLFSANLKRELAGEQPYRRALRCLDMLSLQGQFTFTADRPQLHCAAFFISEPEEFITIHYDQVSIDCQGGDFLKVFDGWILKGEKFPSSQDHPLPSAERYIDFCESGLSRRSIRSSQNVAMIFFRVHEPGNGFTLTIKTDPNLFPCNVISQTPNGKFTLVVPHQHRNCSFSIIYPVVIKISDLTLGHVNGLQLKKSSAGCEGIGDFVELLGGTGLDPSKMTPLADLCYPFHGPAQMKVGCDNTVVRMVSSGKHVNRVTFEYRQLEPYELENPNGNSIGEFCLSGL

[13] = target: T5, Corticotropin-releasing factor receptor 2/Corticotropin-releasing factor-binding protein; test: activators of CRF receptor 2 with binding protein – uHTS hits, confirmation (AID 602473); type: functional; conditions: read-out: EC50_Mean
[14] = reduction of Shn3 3'UTR-driven luciferase in osteoblasts – cell-based, Clone20 osteoblasts, firefly luciferase, cherry-picked, dose response (AID 624132); type: functional;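 further: firefly luciferase luminescence from reporter carrying the Shn3 3'UTR in osteoblasts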
[15] = microbe, parasite or virus in culture; type: functional; conditions: Mycobacterium tuberculosis
[16] = loss of viability in HepG2 cells – cell-based, CellTiter-Glo, cherry-picked, cytotoxicity control for Shn3 inhibitor project, dose response (AID 624134); type: functional
[17] = non-specific 3'UTR reporter inhibition in Clone20-Shn3RL – cell-based, Renilla luciferase, cherry-picked, counter-screen for Shn3 inhibitor project, dose response (AID 624133); type: functional

Chain of Peroxisome proliferator-activated receptor gamma/Nuclear receptor coactivator 2 (P37231 whole entry): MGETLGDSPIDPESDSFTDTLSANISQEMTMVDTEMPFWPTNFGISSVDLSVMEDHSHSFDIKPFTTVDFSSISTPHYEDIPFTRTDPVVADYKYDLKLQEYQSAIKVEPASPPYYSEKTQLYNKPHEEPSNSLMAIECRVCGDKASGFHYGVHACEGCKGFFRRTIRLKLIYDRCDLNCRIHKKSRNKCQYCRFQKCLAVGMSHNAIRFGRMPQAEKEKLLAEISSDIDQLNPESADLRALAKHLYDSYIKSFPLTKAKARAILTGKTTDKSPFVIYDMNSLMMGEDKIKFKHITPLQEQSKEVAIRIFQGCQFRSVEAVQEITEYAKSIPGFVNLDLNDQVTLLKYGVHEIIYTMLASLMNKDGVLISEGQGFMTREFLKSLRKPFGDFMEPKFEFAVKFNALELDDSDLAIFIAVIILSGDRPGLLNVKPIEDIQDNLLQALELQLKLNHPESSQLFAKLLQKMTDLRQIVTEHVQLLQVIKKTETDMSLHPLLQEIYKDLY
Chain of Peroxisome proliferator-activated receptor gamma/Nuclear receptor coactivator 2 (Q15596 whole entry, further chain): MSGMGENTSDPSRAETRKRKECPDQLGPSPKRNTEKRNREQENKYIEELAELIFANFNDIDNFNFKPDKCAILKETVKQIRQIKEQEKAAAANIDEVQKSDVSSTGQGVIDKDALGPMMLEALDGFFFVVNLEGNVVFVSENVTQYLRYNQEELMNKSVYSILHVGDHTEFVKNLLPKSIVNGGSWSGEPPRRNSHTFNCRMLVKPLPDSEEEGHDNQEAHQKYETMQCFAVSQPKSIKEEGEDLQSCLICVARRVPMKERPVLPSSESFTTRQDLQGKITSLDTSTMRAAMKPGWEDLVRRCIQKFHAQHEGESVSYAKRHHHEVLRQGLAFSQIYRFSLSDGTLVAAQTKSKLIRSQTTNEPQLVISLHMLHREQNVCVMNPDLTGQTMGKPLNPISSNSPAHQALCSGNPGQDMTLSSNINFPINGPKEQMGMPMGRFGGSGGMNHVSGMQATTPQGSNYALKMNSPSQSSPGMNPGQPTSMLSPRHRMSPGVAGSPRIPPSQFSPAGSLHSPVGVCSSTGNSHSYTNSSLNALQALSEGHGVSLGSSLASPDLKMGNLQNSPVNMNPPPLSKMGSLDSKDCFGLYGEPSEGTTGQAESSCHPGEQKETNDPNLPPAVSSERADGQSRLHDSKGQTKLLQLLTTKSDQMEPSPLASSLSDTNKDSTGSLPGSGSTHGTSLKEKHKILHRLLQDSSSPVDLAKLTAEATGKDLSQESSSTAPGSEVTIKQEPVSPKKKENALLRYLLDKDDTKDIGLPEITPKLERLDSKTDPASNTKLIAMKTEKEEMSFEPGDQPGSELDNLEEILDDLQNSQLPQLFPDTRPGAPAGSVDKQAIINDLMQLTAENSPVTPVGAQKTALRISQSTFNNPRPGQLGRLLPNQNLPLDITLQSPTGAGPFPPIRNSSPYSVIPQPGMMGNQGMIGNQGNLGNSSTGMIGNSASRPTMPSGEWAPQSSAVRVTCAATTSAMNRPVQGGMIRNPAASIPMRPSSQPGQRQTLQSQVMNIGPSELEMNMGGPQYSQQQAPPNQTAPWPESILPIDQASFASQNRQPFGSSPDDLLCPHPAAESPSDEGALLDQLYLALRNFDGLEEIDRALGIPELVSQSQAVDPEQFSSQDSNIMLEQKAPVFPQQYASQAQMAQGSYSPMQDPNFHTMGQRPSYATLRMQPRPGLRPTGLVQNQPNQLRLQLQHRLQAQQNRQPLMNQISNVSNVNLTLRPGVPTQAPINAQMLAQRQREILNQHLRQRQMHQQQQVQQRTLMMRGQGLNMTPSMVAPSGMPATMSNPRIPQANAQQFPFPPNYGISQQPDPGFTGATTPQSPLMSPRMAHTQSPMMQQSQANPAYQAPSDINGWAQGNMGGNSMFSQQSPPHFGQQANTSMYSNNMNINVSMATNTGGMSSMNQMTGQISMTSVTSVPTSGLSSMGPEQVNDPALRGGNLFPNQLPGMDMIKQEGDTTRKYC
Chain of Peroxisome proliferator-activated receptor gamma/Nuclear receptor coactivator 3 (P37231 whole entry): as the sequence (P37231 whole entry) above
Chain of Peroxisome proliferator-activated receptor gamma/Nuclear receptor coactivator 3 (Q9Y6Q9 whole entry, further chain): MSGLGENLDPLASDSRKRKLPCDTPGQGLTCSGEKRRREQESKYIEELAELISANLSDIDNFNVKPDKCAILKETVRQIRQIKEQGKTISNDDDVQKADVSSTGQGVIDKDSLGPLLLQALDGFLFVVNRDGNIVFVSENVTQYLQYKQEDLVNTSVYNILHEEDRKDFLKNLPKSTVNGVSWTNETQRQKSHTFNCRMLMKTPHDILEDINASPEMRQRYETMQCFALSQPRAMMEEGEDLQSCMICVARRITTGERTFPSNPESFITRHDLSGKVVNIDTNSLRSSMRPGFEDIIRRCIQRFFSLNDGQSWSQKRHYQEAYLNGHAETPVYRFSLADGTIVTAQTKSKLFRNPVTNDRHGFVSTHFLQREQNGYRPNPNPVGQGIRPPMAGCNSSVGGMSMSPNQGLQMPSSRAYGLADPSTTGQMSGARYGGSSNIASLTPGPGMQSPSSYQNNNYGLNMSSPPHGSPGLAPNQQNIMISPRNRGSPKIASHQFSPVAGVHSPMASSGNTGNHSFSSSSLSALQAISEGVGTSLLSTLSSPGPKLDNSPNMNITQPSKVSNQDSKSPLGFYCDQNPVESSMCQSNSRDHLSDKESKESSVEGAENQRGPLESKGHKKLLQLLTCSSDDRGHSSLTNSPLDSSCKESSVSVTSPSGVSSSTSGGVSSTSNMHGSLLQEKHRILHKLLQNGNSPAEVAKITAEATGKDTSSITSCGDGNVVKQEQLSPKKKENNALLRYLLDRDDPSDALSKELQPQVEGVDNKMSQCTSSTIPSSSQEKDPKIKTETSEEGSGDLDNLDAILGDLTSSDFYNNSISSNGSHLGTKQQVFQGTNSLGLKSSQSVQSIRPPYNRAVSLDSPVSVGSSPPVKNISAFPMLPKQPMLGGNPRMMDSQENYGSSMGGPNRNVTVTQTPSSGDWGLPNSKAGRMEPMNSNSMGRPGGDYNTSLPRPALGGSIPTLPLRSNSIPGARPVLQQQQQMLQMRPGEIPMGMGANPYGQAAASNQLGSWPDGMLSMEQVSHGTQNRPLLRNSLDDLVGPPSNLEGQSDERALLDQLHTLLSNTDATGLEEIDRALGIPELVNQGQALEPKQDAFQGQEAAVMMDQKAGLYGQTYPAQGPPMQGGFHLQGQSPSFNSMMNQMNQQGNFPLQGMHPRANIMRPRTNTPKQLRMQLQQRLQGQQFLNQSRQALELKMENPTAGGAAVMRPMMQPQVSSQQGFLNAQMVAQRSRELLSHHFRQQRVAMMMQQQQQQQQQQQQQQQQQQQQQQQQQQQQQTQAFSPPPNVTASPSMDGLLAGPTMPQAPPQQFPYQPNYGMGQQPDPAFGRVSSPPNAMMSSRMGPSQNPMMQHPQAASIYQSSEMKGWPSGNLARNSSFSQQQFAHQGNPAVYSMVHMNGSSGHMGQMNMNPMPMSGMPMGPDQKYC
Chain of Glyceraldehyde-3-phosphate dehydrogenase (P04406 whole entry): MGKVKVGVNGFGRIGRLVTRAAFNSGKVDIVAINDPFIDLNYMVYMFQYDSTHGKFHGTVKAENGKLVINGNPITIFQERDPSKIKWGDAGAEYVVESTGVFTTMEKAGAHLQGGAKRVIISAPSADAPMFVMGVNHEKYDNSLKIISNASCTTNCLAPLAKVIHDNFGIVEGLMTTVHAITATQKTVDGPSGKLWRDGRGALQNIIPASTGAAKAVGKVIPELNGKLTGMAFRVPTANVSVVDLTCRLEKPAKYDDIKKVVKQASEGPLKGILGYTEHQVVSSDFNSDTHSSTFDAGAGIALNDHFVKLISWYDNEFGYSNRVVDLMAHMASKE
Chain of Tumor necrosis factor (P01375 whole entry, the tested form may be a part): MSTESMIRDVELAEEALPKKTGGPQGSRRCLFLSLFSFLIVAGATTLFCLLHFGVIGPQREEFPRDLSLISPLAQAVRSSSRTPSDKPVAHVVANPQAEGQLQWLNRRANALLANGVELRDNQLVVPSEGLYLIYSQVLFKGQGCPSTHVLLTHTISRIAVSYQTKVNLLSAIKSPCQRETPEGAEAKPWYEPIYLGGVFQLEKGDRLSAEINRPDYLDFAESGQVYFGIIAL

Row | Compound | IC50 [1] | EC50 [4] | EC50 [5] | EC50 [6] | other results
1 | COc1ccc(S(=O)(=O)N2CCN(c3ccc4nnc(-c5ccccc5)n4n3)CC2)cc1 | > 20 µM (inactive) | – | – | – | CC50 [2]: > 50 µM (active)
2 | O=C(O)c1cc(NS(=O)(=O)c2cc([N+](=O)[O-])ccc2Cl)ccc1O | – | – | – | – | IC50 [3]: > 100 µM (not active)
3 | Cc1n[nH]c(C)c1S(=O)(=O)N(CC(=O)Nc1ccc2c(c1)OCCO2)c1ccc(C(C)C)cc1 | – | > 79.4 µM (not active) | > 79.4 µM (not active) | > 79.4 µM (not active) | –
4 | CCN(CC)S(=O)(=O)c1cccc(NC(=O)COC(=O)c2nnc(O)c3ccccc23)c1 | – | > 79.4 µM (not active) | > 79.4 µM (not active) | > 79.4 µM (not active) | –
5 | CCOc1cccc(C=NN=C(S)Nc2ccccc2[N+](=O)[O-])c1O | – | – | – | – | IC50 (Tumor necrosis factor): 0.414 µM (active); IC50 [7]: 8.23 µM (active); IC50 (HEK293): > 20 µM (inactive)
6 | O=C(c1cnc(-c2ccc(Cl)cc2)s1)c1ccc(Cl)cc1Cl | – | 18.7 µM (not active) | 30.8 µM (not active) | 38.7 µM (not active) | –
7 | COC(=O)c1ccc(C(=O)OC)c(NC(=O)C(C)(C)C)c1 | – | > 79.4 µM (not active) | > 79.4 µM (not active) | > 79.4 µM (not active) | EC50 [8]: > 260 µM (inactive)
8 | CCN1CC2CCCC3(C1)C(=O)NC1(CCCCC1)N=C23 (stereo not given) | – | – | – | – | AC50 [9]: 15 µM (active)
9 | COC(=O)c1c(NC(=O)C(=O)N2CCCC2)sc2c1CC(C)(C)OC2 | > 20 µM (inactive) | – | – | – | –
10 | NCCc1c(-c2ccccc2)n(-c2ccccc2)c2ccccc12 | – | – | – | – | EC50 [10]: 2.47 µM (active); AC50 [9]: > 20 µM (inactive); EC50 [11]: > 60 µM (inconclusive)
11 | COC(=O)c1c(NC(=O)C=Cc2cccs2)sc2c1CCC(C)C2 (stereo not given) | – | – | – | – | IC50 (Tumor necrosis factor): 5.68 µM (active); IC50 [7]: 9.46 µM (active); IC50 (HEK293): > 20 µM (inactive)
12 | COc1ccc(Cl)cc1Nc1nc(NCCO)nc(N2CCCCC2)n1 | > 20 µM (inactive) | – | – | – | IC50 [12]: > 47.1 µM (inactive); EC50 [13]: > 53 µM (inactive)
13 | CC(C)(C)OC(=O)[C@H](CCCCN)NC(=O)c1[nH]cnc1C(=O)N[C@@H](Cc1ccccc1)C(=O)OCc1ccccc1 | > 20 µM (inactive) | – | – | – | –
14 | COc1cc([N+](=O)[O-])ccc1S(=O)(=O)Nc1cccnc1 | – | – | – | – | IC50 [3]: > 100 µM (not active)
15 | Oc1ccccc1Nc1nc(NCc2ccccc2)c2ccccc2n1 | > 20 µM (inactive) | – | – | – | AC50 [14]: 10.7 µM (active); CC50 [15]: 23.9 µM (active); AC50 [16]: 52.7 µM (active); AC50 [17]: 5.63 µM (active)
16 | CCCCOc1ccc(NC2=NC3(CCCC3)N=C(N)N2)cc1 | – | > 79.4 µM (not active) | > 79.4 µM (not active) | > 79.4 µM (not active) | –
